Experimental data as given in EP0725776B1, “3-ARYL-4-ALKYL AND 4,5-DIALKYL-4H-1,2,4-TRIAZOLES USEFUL AS MEMORY ENHANCERS” (MERRELL PHARMACEUTICALS INC., priority 1993, dated 1995).

Legend:
[1] = test system: Diazepam-Induced Water Maze Learning Impairment; test: Reversal of diazepam-induced water maze learning impairment; type: in vivo, Male Sprague-Dawley rats; conditions: for Mean Latency ± S.E.M., Block 1 / Mean Latency ± S.E.M., Block 2 / Mean Latency ± S.E.M., Block 3: 8 rats
Description: The activity of compounds of formula I in enhancing spacial learning ability and cognition can be tested by studying their ability to reverse a water maze learning impairment induced by the benzodiazepine, diazepam (R. G. M. Morris, Learning and Motivation 12, 239-260 (1982); M. P. Arolfo, and J. D. Brioni, Behavioral and Neural Biology 55, 131-6 (1991); R. K. McNamara and R. W. Skelton, Pharmacology, Biochemistry & Behavior 38, 651-8 (1991); R. K. McNamara and R. W. Skelton, Psychopharmacology 107, 347-51 (1992)).
Male Sprague-Dawley rats are trained in a 120-cm diameter water-filled tank to locate a hidden platform submerged just below the surface of the water. The location of the platform remained constant, but for each trial the animal was required to swim from one of three different starting locations around the edge of the tank. There were no proximal cues in the tank, so the animal had to use a spatial mapping strategy using the distal cues around the room to navigate to the hidden platform. The animals were given 9 successive training trials during the single training day. […] After the animal found or was placed on the platform, it was allowed to stay there for 30 seconds. The next trial commenced immediately following the 30 second stay on the platform. Latency to locate the platform was recorded for each trial using a computerized video tracking system for automated acquisition of the data.
Separate treatment groups of four animals each were run in each experiment. The results of two experiments were combined so that 8 rats were tested in each treatment group. The vehicle-vehicle group received vehicle (distilled water plus Tween) i.p. 60 minutes prior to the first trial and vehicle i.p. 20 minutes prior to the first trial. The vehicle-diazepam group received vehicle i.p. 60 minutes prior to the first trial and 2.5 mg/kg diazepam i.p. 20 minutes prior to the first trial. Two groups of animals were treated with 3-(3-fluorophenyl)-4-methyl-4H-1,2,4-triazole, a compound of formula I, prior to treatment with diazepam. One group received 20 mg/kg of 3-(3-fluorophenyl)-4-methyl-4H-1,2,4-triazole i.p. 60 minutes prior to the first trial and 2.5 mg/kg diazepam i.p. 20 minutes prior to the first trial, while the second group received 40 mg/kg of 3-(3-fluorophenyl)-4-methyl-4H-1,2,4-triazole i.p. 60 minutes prior to the first trial and 2.5 mg/kg diazepam i.p. 20 minutes prior to the first trial.
The latency scores for each animal were averaged into three blocks of three trials each (one trial from each starting location). A one-way ANOVA comparing the treatment groups was computed on the scores for each trial block. If the overall ANOVA was statistically significant, comparisons between individual treatment groups were made with Fisher's PLSD test.

RAT CORTICAL MEMBRANES = test: [3H]hemicholinium-3 binding in vitro in cortical membranes after in vivo administration; set-up: species or system Male Sprague-Dawley rats; conditions: n=10
Description: The pharmacological properties of these compounds as enhancers of memory and cognition and their relative potencies may be measured through their effect on neuro-transmitters in the brain. Since drugs that block GABA inhibition in the cholinergic neurons of the basal forebrain nuclei will stimulate cholinergic firing, thus stimulating memory, the capacity of the drugs to enhance cognition can be assessed by measuring the increase in cholinergic firing rate. The increase in cholinergic firing rate is measured indirectly by measuring choline uptake or [^3H] hemicholinium-3 binding in brain cells taken from treated animals.
To test for [^3H] hemicholinium-3 binding in brain cells from the brain cortex, drugs were dissolved in saline by sonication. Male Sprague-Dawley rats were dosed i.p. and sacrificed by decapitation 60 min after injection. […] Binding was measured by incubating the tissue with varying concentrations of [^3H]hemicholinium-3 in an isotonic Tris buffer (pH 7.4) for 60 min at room temperature. […] After drying, the filters were placed in scintillation cocktail and radioactivity was determined using a Beckman scintillation counter. The values for the Kd and Bmax were determined by nonlinear curve-fitting and the average values for samples of 3 or more animals reported. […]

[2] = reported by M. Y. Mhasalkar, et al., J. Med. Chem 14(3) 260-262, (1971); cited from earlier work
[3] = 20 mg/kg i.p. 60 min prior to first trial, diazepam 2.5 mg/kg i.p. 20 min prior
[4] = 40 mg/kg i.p. 60 min prior to first trial, diazepam 2.5 mg/kg i.p. 20 min prior
[5] = vehicle i.p. 60 min prior, diazepam alone 2.5 mg/kg i.p. 20 min prior to first trial

Cn1cnnc1-c1cccc(F)c1 [3-(3-Fluorophenyl)-4-methyl-4H-1,2,4-triazole]
Mean Latency ± S.E.M., Block 1 [1, 3]: 44.68 ± 2.56 s
Mean Latency ± S.E.M., Block 2 [1, 3]: 37.67 ± 6.01 s
Mean Latency ± S.E.M., Block 3 [1, 3]: 35.21 ± 6.00 s
Effect on diazepam-induced impairment ([1]; 20 mg/kg i.p. plus diazepam 2.5 mg/kg, result in words): attenuated diazepam-induced impairment
Mean Latency ± S.E.M., Block 1 [1, 4]: 58.19 ± 1.01 s
Mean Latency ± S.E.M., Block 2 [1, 4]: 52.83 ± 3.85 s
Mean Latency ± S.E.M., Block 3 [1, 4]: 53.59 ± 4.31 s
Effect on diazepam-induced impairment ([1]; 40 mg/kg i.p. plus diazepam 2.5 mg/kg, result in words): did not affect the diazepam-induced impairment
Bmax ± SEM (RAT CORTICAL MEMBRANES; [3H]hemicholinium-3 binding, rat cortex, dosed i.p. (1/mg/kg), sacrificed 60 min after injection): 20.4±2.48 fmol/mg Protein
% Increase in Bmax (RAT CORTICAL MEMBRANES; over saline control, (1/mg/kg) i.p., 60 min): 45%

Cn1cnnc1-c1ccc(Cl)cc1 [3-(4-Chlorophenyl)-4-methyl-4H-1,2,4-triazole]
hypoglycemic activity [2]: hypoglycemic activity

CN1C(=O)CN=C(c2ccccc2)c2cc(Cl)ccc21 [diazepam, reference compound]
Effect on water maze learning ([1]; diazepam 2.5 mg/kg i.p. versus vehicle-vehicle group, p < .05 on all three blocks, result in words): significantly impaired water maze learning
Mean Latency ± S.E.M., Block 1 [1, 5]: 57.70 ± 2.30 s
Mean Latency ± S.E.M., Block 2 [1, 5]: 49.67 ± 6.06 s
Mean Latency ± S.E.M., Block 3 [1, 5]: 55.76 ± 4.24 s
